Assay results taken from BindingDB's records for patent US20250074895 (Blueprint Medicines, 2025).

Tests used:
[1] = target: Cyclin-dependent kinase/G2/mitotic-specific cyclin- 1 (Homo sapiens, UniProt P06493); experiment: Biochemical CDK Inhibition Assay
Description: (§1) nhibitory effects of the compounds of the disclosure were measured in biochemical assays that measure the enzymatic phosphorylation activity of CDK enzyme in complex of Cyclin proteins phosphorylates 7.5 micromolar fluorescently labelled peptide substrate, 5-FAM-QSPKKG-CONH2, (FL-Peptide 18, Perkin Elmer, 760362) in the presence of adenosine-5′-triphosphate (ATP) and varying concentrations of the test compound in 100 mM 2-[4-(2-hydroxyethyl)piperazin-1-yl]ethanesulfonic acid (HEPES), pH 7.5, 10 mM MgCl2, 0.015% Brij-35, 1 mM dithiothreitol (DTT), 1.0% dimethylsulfoxide (DMSO). Assays were performed at 1.0 mM ATP or at ATP Km of the CDK enzymes in complex with Cyclin proteins. Reactions proceeded until between 10% to 20% total peptides were phosphorylated at room temperature (25° C.) and were terminated with 35 mM 2,2′,2″,2′″-(ethane-1,2-diyldinitrilo)tetraacetic acid (EDTA). Product was detected using the Caliper mobility shift detection method where the phosphorylated peptide (product) and substrate were electrophoretically separated and measured. Percent activity was plotted against log concentration of compound and points to generate an apparent IC50. The following CDK enzymes in complex with different cyclin proteins were used in these assays:CDK1/Cyclin B1, GST-tag (BPS, 40454), 1.5 nM used in the assayCDK2/Cyclin E (Eurofins, 14-475), 1.25 nM used in the assays

[2] = target: Cyclin-dependent kinase 2/G1/S-specific cyclin-E1 (Homo sapiens, UniProt P24941); experiment: Biochemical CDK Inhibition Assay
Description: as §1

Chain of Cyclin-dependent kinase/G2/mitotic-specific cyclin- 1 (P06493 whole entry): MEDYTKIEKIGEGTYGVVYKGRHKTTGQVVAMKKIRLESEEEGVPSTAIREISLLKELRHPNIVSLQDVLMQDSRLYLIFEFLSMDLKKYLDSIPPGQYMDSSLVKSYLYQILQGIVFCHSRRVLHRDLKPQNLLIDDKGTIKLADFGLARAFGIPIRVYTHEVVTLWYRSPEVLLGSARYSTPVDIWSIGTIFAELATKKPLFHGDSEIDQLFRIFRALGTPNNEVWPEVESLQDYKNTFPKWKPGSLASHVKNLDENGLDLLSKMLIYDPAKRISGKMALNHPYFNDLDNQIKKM
Chain of Cyclin-dependent kinase/G2/mitotic-specific cyclin- 1 (P14635 whole entry, further chain): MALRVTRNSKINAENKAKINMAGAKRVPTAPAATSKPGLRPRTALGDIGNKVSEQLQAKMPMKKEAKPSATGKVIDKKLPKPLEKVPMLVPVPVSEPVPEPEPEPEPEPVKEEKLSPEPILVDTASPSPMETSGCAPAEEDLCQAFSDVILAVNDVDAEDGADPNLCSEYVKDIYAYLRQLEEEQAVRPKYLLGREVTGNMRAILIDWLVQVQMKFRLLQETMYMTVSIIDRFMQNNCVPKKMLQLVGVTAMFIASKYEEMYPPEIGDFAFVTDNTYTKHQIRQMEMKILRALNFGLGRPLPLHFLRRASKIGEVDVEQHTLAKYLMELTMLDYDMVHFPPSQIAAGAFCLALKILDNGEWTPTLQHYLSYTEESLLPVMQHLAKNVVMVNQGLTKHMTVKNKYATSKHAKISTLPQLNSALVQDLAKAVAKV

IC50 [1] [µM]	IC50 [2] [µM]	SMILES
0.3	< 0.01	C[C@@H](O)c1cnc(Nc2cc([C@H]3CC[C@@H](OC(=O)NC4(C)CC4)C3)[nH]n2)cn1 [US20250074895, Compound 22]
0.3	< 0.01	COCc1cnc(Nc2cc([C@H]3CC[C@@H](OC(=O)NC4(C)CC4)C3)[nH]n2)cn1 [US20250074895, Compound 37]
< 0.1	< 0.01	Cc1cc(C#N)cc(Nc2cc([C@H]3CC[C@@H](OC(=O)NC4(C)CC4)C3)[nH]n2)n1 [US20250074895, Compound 15]
0.3	< 0.01	COc1cncc(Nc2cc([C@H]3CC[C@@H](OC(=O)NC4(C)CC4)C3)[nH]n2)n1 [US20250074895, Compound 24]
